From patent US6429024B1, “Test method for IgA nephropathy” (Asahi Kasei Kabushiki Kaisha, priority 1998, dated 2002)

test system: antibody recognizing the core peptide of the hinge region in IgA1 (IgG class, serum of patient with IgA nephropathy); assay: Assay of inhibitory activities of various synthetic peptides (enzyme immunoassay: patient serum pre-incubated with peptide, then reacted with immobilized IgA1 hinge core peptide-BSA antigen); format: binding; conditions: synthetic peptide 1 μg/ml in PBS mixed 1:1 with 1/50 diluted serum, room temperature 3 hours; peroxidase labeled anti-human IgG; absorbancy at 490 nm
Procedure: Antigen was prepared according to the method described in the above example 1 (1).
The above antigen solution was dissolved to […] in 0.015 M carbonate buffer (pH 9.6) and each 100 μl was added in each well of the 96 well microtiter plate (A Flow General Co., Linbro/Titertek EIA Microtitration plate, Cat. No. 76-381-04), then incubated at 4° C. overnight (standing culture).
PBS (0.01 M phosphate buffer, pH 7.5 containing 0.15 M NaCl) solution (200 μl) containing 1% bovine serum albumin (fraction V, purchased from SIGMA Inc.) was added in each well, and incubated at 4° C. overnight. Each well was washed with 200 μl of PBS. The antigen was immobilized.
Synthetic peptide [the core peptide constructing a part of the hinge region in IgA1 as follows:
was dissolved to 1 μg/ml with PBS. The above diluted serum of patient with IgA nephropathy and the solution of synthetic peptide were mixed in equal volume (1:1). Also the above diluted serum of patient with IgA nephropathy and PBS without containing synthetic peptide (hereinafter designated as blank solution) were mixed in equal volume (1:1). These mixtures were incubated at room temperature for 3 hours.
After termination of the incubation, each solution (100 μl) was added in each well, which was provided with the antigen immobilized therein, of the 96 well microtiter plate and incubated at room temperature for 3 hours.
Each well was washed three times with 200 μl of PBS containing 0.1% bovine serum albumin, 0.05% Tween-20 (hereinafter designated as PS/BSA/Tween).
A solution (100 μl) of peroxidase labeled anti-human IgG (purchased from Organon Tecknika Inc.), which was diluted to 1/200 with PBS, was added in each well.
After incubation at room temperature for 1 hour, each well was washed three times with PS/BSA/Tween (200 μl).
Coloring agent (100 μl)(orthophenylenediamine 20 mg, sodium […]·12H2O 1.795 g, citric acid 0.525 g, and hydrogen peroxide 15 μl were dissolved in water 50 ml) was added in each well, and incubated at room temperature for 1 hour.
After the incubation was terminated, absorbency at 490 nm was measured using microplate reader (Bio-Red Inc., Microplate reader Model 450).

Row | Substance | inhibitory action on the reaction of patient serum with the core peptide of the hinge region in IgA1
1 | Leu Lys Pro Asp Pro (LKPDP; listed as Bovine sp.) [core peptide constructing a part of the bovine serum albumin, reference compound] | no inhibitory action on the reaction was observed
2 | Leu Pro Pro Leu Thr (LPPLT; listed as Bovine sp.) [core peptide constructing a part of the bovine serum albumin, reference compound] | no inhibitory action on the reaction was observed
3 | Pro Ser Pro Ser Cys (PSPSC) [core peptide constructing a part of the hinge region in IgA1] | inhibitory action on the reaction was observed
4 | Pro Ser Pro Ser Thr (PSPST) [core peptide constructing a part of the hinge region in IgA1] | inhibitory action on the reaction was observed
5 | Pro Ser Thr Pro Pro (PSTPP) [core peptide constructing a part of the hinge region in IgA1] | inhibitory action on the reaction was observed
6 | Pro Thr Pro Ser Pro (PTPSP) [core peptide constructing a part of the hinge region in IgA1] | inhibitory action on the reaction was observed
7 | Pro Val Pro Ser Thr (PVPST) [core peptide constructing a part of the hinge region in IgA1] | inhibitory action on the reaction was observed
8 | Ser Pro Asp Leu Pro (SPDLP; listed as Bovine sp.) [core peptide constructing a part of the bovine serum albumin, reference compound] | no inhibitory action on the reaction was observed
9 | Thr Pro Asp Glu Thr (TPDET; listed as Bovine sp.) [core peptide constructing a part of the bovine serum albumin, reference compound] | no inhibitory action on the reaction was observed
10 | Thr Pro Pro Thr Pro (TPPTP) [core peptide constructing a part of the hinge region in IgA1] | inhibitory action on the reaction was observed
11 | Thr Pro Val Glu Ser (TPVES; listed as Bovine sp.) [core peptide constructing a part of the bovine serum albumin, reference compound] | no inhibitory action on the reaction was observed
